In US10537548B2, “Composition and medical product for reducing body weight and body fat, and use of said product” (Caliway Biopharmaceuticals Co., Ltd., priority 2014, dated 2020):

Assay: Animal Experiment I, drug administration during obesity induction (high-fat diet)
Assay type: in vivo, B6 female mice
Details: oral gavage daily, 8 weeks, compared to obesity control group
Procedure: In this experimental example, 8-week old B6 female mice were experimented and divided into a normal control group, an obesity control group, a resveratrol group (the administered dose of resveratrol was 61.5 mg/kg B.W.), a green tea extract group (the administered dose of green tea extract was 123 mg/kg B.W.), and the plant extract compositions ME001 of the present invention group (the administered dose of ME001 was 676.5 mg/kg B.W.) Five female mice were included in each group for experimentation. During the experimental period, with the exception of the normal control group, the other groups were fed with high-fat diet for eight consecutive weeks to induce obesity symptoms, and were also fed by oral gavage with the test substance daily during the same eight weeks. The obesity control group was fed by oral gavage with an equal volume of sterile water, and the difference in body weight of each group of mice was evaluated. The body weight and average food intake of each animal were recorded weekly during the experimental period. The mice were sacrificed after the experimentation. […] The data of each group are expressed as mean±SD. Letters a, b, and c indicate the results of statistical analysis, wherein different letters indicate significant statistical difference between groups (p<0.05), and identical letters indicate no significant statistical difference between groups (p>0.05).

## Oc1ccc(C=Cc2cc(O)cc(O)c2)cc1 [resveratrol]
  total body weight gain: did not show statistical difference
